Columns and labels:
corn [1] = assay: Test Example 1: foliage treatment, upland pot test; type: in vivo, Zea mays L.; settings: crop, active ingredient 500 g/ha, observed 18th to 23rd day, 0 = non-treated, 100 = complete kill
Summary of the method: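 In this upland pot foliage test, corn plants at 2.1 to 3.2 leaf stages were sprayed by a small size sprayer. The spray was a conventionally formulated wettable powder or emulsifiable concentrate weighed to a set active ingredient amount, diluted in water at 500 L/ha, plus 0.1% (v/v) agricultural spreader. Visual assessment on days 18 to 23 gave growth controlling degree (%), where 0 equals untreated and 100 means complete kill.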

prickly sida [2] = assay: Test Example 2: soil surface treatment, upland pot test; type: in vivo, Sida spinosa L.; settings: active ingredient 500 g/ha, observed 20th to 28th day
Summary of the method: (§1)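 A pre-emergence soil application: formulated compound at a predetermined active-ingredient dose, diluted in water to 1,500 L/ha, sprayed on upland soil a day after seeding in 1/170,000 ha pots; growth control rated visually, 0 (untreated level) to 100 (kill), at 20–28 days.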

redroot pigweed [3] = assay: as above; type: in vivo, Amaranthus retroflexus L.; settings: active ingredient 500 g/ha, observed 20th to 28th day
Summary of the method: as §1

green foxtail [4] = assay: as above; type: in vivo, Setaria viridis L.; settings: active ingredient 500 g/ha, observed 20th to 28th day
Summary of the method: as §1

velvetleaf [5] = assay: Test Example 1: foliage treatment, upland pot test; type: in vivo, Abutilon theophrasti MEDIC.; settings: active ingredient 500 g/ha, observed 18th to 23rd day, 0 = non-treated, 100 = complete kill
prickly sida [6] = assay: Test Example 1: foliage treatment, upland pot test; type: in vivo, Sida spinosa L.; settings: active ingredient 500 g/ha, observed 18th to 23rd day, 0 = non-treated, 100 = complete kill
redroot pigweed [7] = assay: Test Example 1: foliage treatment, upland pot test; type: in vivo, Amaranthus retroflexus L.; settings: active ingredient 500 g/ha, observed 18th to 23rd day, 0 = non-treated, 100 = complete kill
japanese bulrush = assay: Test Example 3: paddy pot test, application under submerged conditions; type: in vivo, Scirpus juncoides; settings: active ingredient 250 g/ha; submerged application at 0.5 leaf stage; visually observed 14 days after application; 0 = non-treated, 100 = complete kill
Summary of the method: (§2)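 Visual rating of growth control (0% equals untreated, 100% complete kill) made 14 days after treatment. Compound, formulated as wettable powder or emulsifiable concentrate and diluted in water, was pipetted under submerged conditions at predetermined active-ingredient doses once weeds reached 0.5-leaf (barnyardgrass, bulrush) or primary-leaf (wapato, from tubers) stage. Pots of greenhouse paddy soil held 3–4 cm flooding.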

soybean [8] = assay: Test Example 2: soil surface treatment, upland pot test; type: in vivo, Glycine max Merr.; settings: active ingredient 500 g/ha, observed 20th to 28th day
Summary of the method: as §1

crabgrass [9] = assay: as above; type: in vivo, Digitaria sanguinalis L.; settings: active ingredient 500 g/ha, observed 20th to 28th day
Summary of the method: as §1

rice (var. Nihonbare) = assay: Test Example 3: paddy pot test, transplanted rice; type: in vivo, Oryza sativa L.; settings: active ingredient 250 g/ha, applied 4th day after transplantation, visually observed 21st day after application, 0 = non-treated, 100 = complete kill
Summary of the method: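 Visual crop-injury rating (0 = as untreated, 100 = complete kill, %) taken 21 days post-application. Treatment: formulated compound, water-diluted, pipetted into 3–4 cm flood water at a preset active-ingredient dose, 4 days after transplanting 2-leaf Nihonbare rice 3 cm deep in puddled paddy soil.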

soybean [10] = assay: Test Example 1: foliage treatment, upland pot test; type: in vivo, Glycine max Merr.; settings: crop, active ingredient 500 g/ha, observed 18th to 23rd day, 0 = non-treated, 100 = complete kill
Summary of the method: (§3)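 Sow in upland field soil; grow to leaf stage (barnyardgrass 1.3–2.8, soybean 0.1–0.4, wheat 1.3–2.4, rice 1.2–2.6); spray foliage with compound in water, 500 L/ha, spreader 0.1% (v/v); assess visually at 18–23 d, 0 (as untreated) to 100 (full kill).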

rice [11] = assay: Test Example 2: soil surface treatment, upland pot test; type: in vivo, Oryza sativa L.; settings: active ingredient 500 g/ha, observed 20th to 28th day
Summary of the method: as §1

crabgrass [12] = assay: Test Example 1: foliage treatment, upland pot test; type: in vivo, Digitaria sanguinalis L.; settings: active ingredient 500 g/ha, observed 18th to 23rd day, 0 = non-treated, 100 = complete kill
rice [13] = assay: Test Example 1: foliage treatment, upland pot test; type: in vivo, Oryza sativa L.; settings: crop, active ingredient 500 g/ha, observed 18th to 23rd day, 0 = non-treated, 100 = complete kill
Summary of the method: as §3

barnyardgrass [14] = assay: Test Example 3: paddy pot test, application under submerged conditions; type: in vivo, Echinochloa crus-galli L.; settings: active ingredient 250 g/ha; submerged application at 0.5 leaf stage; visually observed 14 days after application; 0 = non-treated, 100 = complete kill
Summary of the method: as §2

green foxtail [15] = assay: Test Example 1: foliage treatment, upland pot test; type: in vivo, Setaria viridis L.; settings: active ingredient 500 g/ha, observed 18th to 23rd day, 0 = non-treated, 100 = complete kill
corn [16] = assay: Test Example 2: soil surface treatment, upland pot test; type: in vivo, Zea mays L.; settings: active ingredient 500 g/ha, observed 20th to 28th day
Summary of the method: as §1

barnyardgrass [17] = assay: Test Example 1: foliage treatment, upland pot test; type: in vivo, Echinochloa crus-galli L.; settings: active ingredient 500 g/ha, observed 18th to 23rd day, 0 = non-treated, 100 = complete kill
Summary of the method: as §3

japanese ribbon wapato = assay: Test Example 3: paddy pot test, application under submerged conditions; type: in vivo, Sagittaria pygniaea; settings: active ingredient 250 g/ha; submerged application at primary leaf stage; visually observed 14 days after application; 0 = non-treated, 100 = complete kill
Summary of the method: as §2

barnyardgrass [18] = assay: Test Example 2: soil surface treatment, upland pot test; type: in vivo, Echinochloa crus-galli L.; settings: active ingredient 500 g/ha, observed 20th to 28th day
Summary of the method: as §1

velvetleaf [19] = assay: as above; type: in vivo, Abutilon theophrasti MEDIC.; settings: active ingredient 500 g/ha, observed 20th to 28th day
Summary of the method: as §1

| Compound | Growth controlling degree (%) Corn (corn [1]) [%] | Growth controlling degree (%) Prickly sida (prickly sida [2]) [%] | Growth controlling degree (%) Redroot pigweed (redroot pigweed [3]) [%] | Growth controlling degree (%) Green foxtail (green foxtail [4]) [%] | Growth controlling degree (%) Velvetleaf (velvetleaf [5]) [%] | Growth controlling degree (%) Prickly sida (prickly sida [6]) [%] | Growth controlling degree (%) Redroot pigweed (redroot pigweed [7]) [%] | Growth controlling degree (%) Japanese bulrush (japanese bulrush) [%] | Growth controlling degree (%) Soyabean (soybean [8]) [%] | Growth controlling degree (%) Crabgrass (crabgrass [9]) [%] | Growth controlling degree (%) Rice (rice (var. Nihonbare)) [%] | Growth controlling degree (%) Soybean (soybean [10]) [%] | Growth controlling degree (%) Rice (rice [11]) [%] | Growth controlling degree (%) Crabgrass (crabgrass [12]) [%] | Growth controlling degree (%) Rice (rice [13]) [%] | Growth controlling degree (%) Barnyardgrass (barnyardgrass [14]) [%] | Growth controlling degree (%) Green foxtail (green foxtail [15]) [%] | Growth controlling degree (%) Corn (corn [16]) [%] | Growth controlling degree (%) Barnyardgrass (barnyardgrass [17]) [%] | Growth controlling degree (%) Japanese ribbon wapato (japanese ribbon wapato) [%] | also measured |
| --- | --- | --- | --- | --- | --- | --- | --- | --- | --- | --- | --- | --- | --- | --- | --- | --- | --- | --- | --- | --- | --- |
| CC(C)C(c1cnccc1C(F)(F)F)N(C)C(=O)Cc1ccc(C(F)(F)F)c(F)c1 (stereo not drawn) [I-62] | 10 | 98 | 70 | 60 | 90 | 70 | 80 | 30 | 10 | 98 | 20 | 30 | 10 | 60 | 10 | 98 | 40 | 10 | 20 | 0 | Growth controlling degree (%) Barnyardgrass (barnyardgrass [18]): 60%; Growth controlling degree (%) Velvetleaf (velvetleaf [19]): 50% |
| CC(C)C(c1cnccc1C(F)(F)F)N(C)C(=O)Cc1c(F)cccc1Cl (stereo not drawn) [I-33] | 0 | 80 | 80 | 90 | 80 | 70 | 60 | 85 | 0 | 100 | 10 | 40 | 10 | 80 | 30 | 100 | 70 | 30 | 20 | 90 | Growth controlling degree (%) Barnyardgrass (barnyardgrass [18]): 100%; Growth controlling degree (%) Velvetleaf (velvetleaf [19]): 90% |
| CC(C)C(c1cnccc1C(F)(F)F)N(C)C(=O)Cc1cc(F)ccc1F (stereo not drawn) [I-85] | 60 | 100 | 90 | 100 | 90 | 80 | 70 | 98 | 40 | 100 | 0 | 80 | 10 | 90 | 40 | 100 | 85 | 10 | 80 | 70 | Growth controlling degree (%) Barnyardgrass (barnyardgrass [18]): 100%; Growth controlling degree (%) Velvetleaf (velvetleaf [19]): 80% |
